Source: the supplement of paper PMC4862054

Experiments:
Assay in all cases: normalised viability (% of control), CellTiter-Blue; higher = more viable cells (about 100 = DMSO control)
Conditions in all cases: incubation time: 72 h
MDA-MB-453 [1] = system: MDA-MB-453
Description: (§1)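 DSRT, CellTiter-Blue viability, 72 h incubation. Signal is normalised to DMSO and benzethonium chloride controls. Value is the normalised response at dose 7.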

CAL-51 [2] = system: CAL-51
Description: as §1

HDQ-P1 [3] = system: HDQ-P1
Description: as §1

CAL-148 [4] = system: CAL-148
Description: as §1

DU-4475 [5] = system: DU-4475
Description: as §1

CAL-85-1 [6] = system: CAL-85-1
Description: as §1

HCC1599 [7] = system: HCC1599
Description: (§2)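 DSRT, CellTiter-Blue viability, 72 h incubation. Signal is normalised to DMSO and benzethonium chloride controls. Value is the normalised response at dose 3.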

MDA-MB-468 = system: MDA-MB-468
Description: as §2

MDA-MB-231 = system: MDA-MB-231
Description: as §2

MDA-MB-453 [8] = system: MDA-MB-453; remark: listed apart in the source
Description: as §2

CAL-51 [9] = system: CAL-51; remark: listed apart in the source
Description: as §2

MFM-223 = system: MFM-223
Description: as §2

Hs578T = system: Hs578T
Description: as §2

HDQ-P1 [10] = system: HDQ-P1; remark: listed apart in the source
Description: as §2

CAL-148 [11] = system: CAL-148; remark: listed apart in the source
Description: as §2

BT-474 = system: BT-474
Description: as §2

HCC1937 = system: HCC1937
Description: as §2

DU-4475 [12] = system: DU-4475; remark: listed apart in the source
Description: as §2

BT-549 = system: BT-549
Description: as §2

SK-BR-3 = system: SK-BR-3
Description: as §2

CAL-85-1 [13] = system: CAL-85-1; remark: listed apart in the source
Description: as §2

HCC1143 = system: HCC1143
Description: as §2

CAL-120 [14] = system: CAL-120
Description: as §2

MDA-MB-436 = system: MDA-MB-436
Description: as §2

MDA-MB-453 [15] = system: MDA-MB-453; remark: listed apart in the source
Description: (§3)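 DSRT, CellTiter-Blue viability, 72 h incubation. Signal is normalised to DMSO and benzethonium chloride controls. Value is the normalised response at dose 8.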

CAL-51 [16] = system: CAL-51; remark: listed apart in the source
Description: as §3

HDQ-P1 [17] = system: HDQ-P1; remark: listed apart in the source
Description: as §3

CAL-148 [18] = system: CAL-148; remark: listed apart in the source
Description: as §3

DU-4475 [19] = system: DU-4475; remark: listed apart in the source
Description: as §3

CAL-85-1 [20] = system: CAL-85-1; remark: listed apart in the source
Description: as §3

HCC1599 [21] = system: HCC1599; remark: listed apart in the source
Method in brief: (§4)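 Breast cancer cell lines were treated for 72 h in 384-well format and measured by CellTiter-Blue fluorescence at 560/590 nm. Results were normalised per plate to vehicle (100) and a positive kill control (0). The entry is normalised viability at a single listed concentration of the series.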

CAL-120 [22] = system: CAL-120; remark: listed apart in the source
Method in brief: as §4

CCc1cncnc1N1CCN(Cc2nc3ccc(C(F)(F)F)cc3[nH]2)CC1
normalised viability (MDA-MB-453 [1]; 1000 nM): 96.5% | normalised viability (CAL-51 [2]; 1000 nM): 87% | normalised viability (HDQ-P1 [3]; 1000 nM): 95.9% | normalised viability (CAL-148 [4]; 1000 nM): 124% | normalised viability (DU-4475 [5]; 1000 nM): 101% | normalised viability (CAL-85-1 [6]; 1000 nM): 101% | normalised viability (HCC1599 [7]; 100 nM): 86.2% | normalised viability (MDA-MB-468; 100 nM): 117% | normalised viability (MDA-MB-231; 100 nM): 91.6% | normalised viability (MDA-MB-453 [8]; 10 nM): 98.8% | normalised viability (CAL-51 [9]; 10 nM): 87% | normalised viability (MFM-223; 100 nM): 103% | normalised viability (Hs578T; 100 nM): 96.4% | normalised viability (HDQ-P1 [10]; 10 nM): 116% | normalised viability (CAL-148 [11]; 10 nM): 107% | normalised viability (BT-474; 100 nM): 123% | normalised viability (HCC1937; 100 nM): 104% | normalised viability (DU-4475 [12]; 10 nM): 94.2% | normalised viability (BT-549; 100 nM): 88.2% | normalised viability (SK-BR-3; 100 nM): 98.2% | normalised viability (CAL-85-1 [13]; 10 nM): 96.3% | normalised viability (HCC1143; 100 nM): 132% | normalised viability (CAL-120 [14]; 100 nM): 105% | normalised viability (MDA-MB-436; 100 nM): 99.8% | normalised viability (MDA-MB-453 [15]; 3000 nM): 88.7% | normalised viability (CAL-51 [16]; 3000 nM): 88.9% | normalised viability (HDQ-P1 [17]; 3000 nM): 108% | normalised viability (CAL-148 [18]; 3000 nM): 104% | normalised viability (DU-4475 [19]; 3000 nM): 100% | normalised viability (CAL-85-1 [20]; 3000 nM): 100% | normalised viability (HCC1599 [21]; 10 nM): 77.2% | normalised viability (HCC1599 [21]; 1000 nM): 83% | normalised viability (HCC1599 [21]; 10000 nM): 90.2% | normalised viability (CAL-120 [22]; 10 nM): 104% | normalised viability (CAL-120 [22]; 1000 nM): 135% | normalised viability (CAL-120 [22]; 10000 nM): 132%

Cc1cnc(NC(=O)Nc2cc(Br)c(C)cc2OC[C@@H]2CNCCO2)cn1
normalised viability (MDA-MB-453 [1]; 100 nM): 88.7% | normalised viability (CAL-51 [2]; 100 nM): 91.2% | normalised viability (HDQ-P1 [3]; 100 nM): 110% | normalised viability (CAL-148 [4]; 100 nM): 101% | normalised viability (DU-4475 [5]; 100 nM): 109% | normalised viability (CAL-85-1 [6]; 100 nM): 85.9% | normalised viability (HCC1599 [7]; 10 nM): 122% | normalised viability (MDA-MB-468; 10 nM): 104% | normalised viability (MDA-MB-231; 10 nM): 103% | normalised viability (MDA-MB-453 [8]; 1 nM): 104% | normalised viability (CAL-51 [9]; 1 nM): 95% | normalised viability (MFM-223; 10 nM): 89.6% | normalised viability (Hs578T; 10 nM): 101% | normalised viability (HDQ-P1 [10]; 1 nM): 90.1% | normalised viability (CAL-148 [11]; 1 nM): 90.3% | normalised viability (BT-474; 10 nM): 101% | normalised viability (HCC1937; 10 nM): 127% | normalised viability (DU-4475 [12]; 1 nM): 90.8% | normalised viability (BT-549; 10 nM): 87.3% | normalised viability (SK-BR-3; 10 nM): 88.3% | normalised viability (CAL-85-1 [13]; 1 nM): 91.4% | normalised viability (HCC1143; 10 nM): 82.5% | normalised viability (CAL-120 [14]; 10 nM): 87.9% | normalised viability (MDA-MB-436; 10 nM): 112% | normalised viability (MDA-MB-453 [15]; 300 nM): 93.3% | normalised viability (CAL-51 [16]; 300 nM): 103% | normalised viability (HDQ-P1 [17]; 300 nM): 96.2% | normalised viability (CAL-148 [18]; 300 nM): 107% | normalised viability (DU-4475 [19]; 300 nM): 102% | normalised viability (CAL-85-1 [20]; 300 nM): 88.1% | normalised viability (HCC1599 [21]; 1 nM): 112% | normalised viability (HCC1599 [21]; 100 nM): 95.7% | normalised viability (HCC1599 [21]; 1000 nM): 65.7% | normalised viability (CAL-120 [22]; 1 nM): 88.5% | normalised viability (CAL-120 [22]; 100 nM): 96.4% | normalised viability (CAL-120 [22]; 1000 nM): 90.1%

NCCCNCCSP(=O)(O)O [Amifostine]
normalised viability (MDA-MB-453 [1]; 1000 nM): 92.9% | normalised viability (CAL-51 [2]; 1000 nM): 109% | normalised viability (HDQ-P1 [3]; 1000 nM): 89.8% | normalised viability (CAL-148 [4]; 1000 nM): 90.6% | normalised viability (DU-4475 [5]; 1000 nM): 82.7% | normalised viability (CAL-85-1 [6]; 1000 nM): 81.2% | normalised viability (HCC1599 [7]; 100 nM): 98.2% | normalised viability (MDA-MB-468; 100 nM): 102% | normalised viability (MDA-MB-231; 100 nM): 93.1% | normalised viability (MDA-MB-453 [8]; 10 nM): 85.7% | normalised viability (CAL-51 [9]; 10 nM): 105% | normalised viability (MFM-223; 100 nM): 77.7% | normalised viability (Hs578T; 100 nM): 79.1% | normalised viability (HDQ-P1 [10]; 10 nM): 105% | normalised viability (CAL-148 [11]; 10 nM): 93.5% | normalised viability (BT-474; 100 nM): 95.8% | normalised viability (HCC1937; 100 nM): 85.5% | normalised viability (DU-4475 [12]; 10 nM): 97.3% | normalised viability (BT-549; 100 nM): 103% | normalised viability (SK-BR-3; 100 nM): 108% | normalised viability (CAL-85-1 [13]; 10 nM): 90.7% | normalised viability (HCC1143; 100 nM): 78.3% | normalised viability (CAL-120 [14]; 100 nM): 90.4% | normalised viability (MDA-MB-436; 100 nM): 107% | normalised viability (MDA-MB-453 [15]; 3000 nM): 96.6% | normalised viability (CAL-51 [16]; 3000 nM): 107% | normalised viability (HDQ-P1 [17]; 3000 nM): 94.8% | normalised viability (CAL-148 [18]; 3000 nM): 95.1% | normalised viability (DU-4475 [19]; 3000 nM): 110% | normalised viability (CAL-85-1 [20]; 3000 nM): 91.6% | normalised viability (HCC1599 [21]; 10 nM): 102% | normalised viability (HCC1599 [21]; 1000 nM): 72.4% | normalised viability (HCC1599 [21]; 10000 nM): 81.7% | normalised viability (CAL-120 [22]; 10 nM): 71.9% | normalised viability (CAL-120 [22]; 1000 nM): 84.1% | normalised viability (CAL-120 [22]; 10000 nM): 82.1%
